# From patent US20160017273A1, “SPERM SELECTION UNIT STRUCTURE, SPERM SCREENING DEVICE PROVIDED WITH SPERM SELECTION UNIT STRUCTURE, AND METHOD OF PREPARING SEMEN FOR FERTILIZATION” (NATIONAL INSTITUTE OF ADVANCED INDUSTRIAL SCIENCE AND …, priority 2013, published 2016)
# Test system: sperm of thawed frozen semen
# Test: ratio between X sperm and Y sperm (real time PCR) in semen recovered by the sperm screening device after the sperm preservation step with a phenoxazine compound
# Type: cell-based, Holstein cattle
# Conditions: 25 μM brilliant cresyl blue + 5 mM glucose-6-phosphate, no electron accepting substance added, 5% CO2
# Experimental: Frozen semen of WHO OCEANIC JOVIAN ET (Holstein cattle) was thawed in accordance with the predetermined steps, 200 μl of thawed semen was sampled and was put into a tube having a capacity of 1.5 ml. Then, semen was subjected to the centrifugal separation (7 minutes, 2000 rpm), and a half of supernatant of the semen after being subjected to the centrifugal separation was thrown away and approximately 1004 of semen was left in the tube.
# An approximately 100 μL of buffer solution (obtained by adding 6 mg/mL BSA+10 μg/mL of gentamycin+5 mM EGTA to the commercially available “SP-TALP” solution) is added into the tube, the buffer solution is stirred lightly and, thereafter, the buffer solution was incubated for 50 minutes at 37° with 5% CO2.
# Next, the tube was subjected to the centrifugal separation again (7 minutes, 2000 rpm), and a supernatant of the solution was thrown away, and an approximately 100 μL of buffer solution (obtained by adding 6 mg/mL BSA+10 […] to the commercially available “SP-TALP” solution; not containing EGTA) was added into the tube and, thereafter, the solution was stirred lightly.
# The tube was subjected to the centrifugal separation again (7 minutes, 2000 rpm), and 100 μL of a supernatant of the solution was thrown away, and an approximately 100 μL of buffer solution (obtained by adding 6 mg/mL BSA+10 μg/mL gentamycin +25 μM brilliant cresyl blue +5 mM glucose-6-phosphate to the commercially available “SP-TALP” solution) was added into the tube and, thereafter, the solution was incubated at 37° C. with 5% CO2 (sperm preservation step). […]
# Thereafter, sperm having high motility were recovered by using the sperm screening device according to this embodiment. Then, with respect to the acquired semen for artificial insemination, a ratio between X sperm and Y sperm was investigated using a real time PCR method.
# [1] = incubation 30 minutes at 37° C.
# [2] = incubation 50 minutes at 37° C.
substance,measurement,setting,value
brilliant cresyl blue,ratio of X sperm,[1],39%
same,ratio of Y sperm,[1],61%
same,ratio of X sperm,[2],35%
same,ratio of Y sperm,[2],65%
